# Data taken from article PMC8662641, “Site-Specific Labeling of Endogenous Proteins Using CoLDR Chemistry” (Journal of the American Chemical Society, 2021).
# Where a name gives a salt, the structure may show the parent alone.
# What was measured:
# Abl = tested on: Abl; set-up: method as in selleck (supplier comment); conditions: ref selleck (supplier comment); cited from earlier work
# Src = tested on: Src; set-up: method as in selleck (supplier comment); conditions: ref selleck (supplier comment); cited from earlier work
# IKK complex = tested on: IKK complex; set-up: method as in selleck (supplier comment); conditions: cell-free assays; ref selleck (supplier comment); cited from earlier work
# IKK-2 = tested on: IKK-2; set-up: method as in selleck (supplier comment); conditions: cell-free assays; ref selleck (supplier comment); cited from earlier work
# BTK = BTK (Homo sapiens, UniProt Q06187); set-up: BTK kinase domain was expressed and purified as previously reported; made in house; method as in Reddi et al., J. Am. Chem. Soc. 2021, 143 (13), 4979–4992; conditions: ref Reddi et al., J. Am. Chem. Soc. 2021, 143 (13), 4979–4992; cited from earlier work
# BTK, sequence (Q06187 402-655 limits assumed): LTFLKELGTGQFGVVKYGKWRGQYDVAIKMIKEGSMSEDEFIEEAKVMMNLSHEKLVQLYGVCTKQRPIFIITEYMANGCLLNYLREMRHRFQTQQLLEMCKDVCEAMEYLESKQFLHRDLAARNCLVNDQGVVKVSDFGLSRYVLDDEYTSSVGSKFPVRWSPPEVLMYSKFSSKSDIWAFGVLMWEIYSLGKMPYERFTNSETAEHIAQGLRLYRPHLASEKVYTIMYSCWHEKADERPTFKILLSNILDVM
# BTK-1h = biological target: T1, BTK-1h (Homo sapiens, UniProt Q06187); assay: High-throughput screening with 1h-labeled BTK; type: binding
# T1 construct: The BTK kinase domain was diluted to 2 μM in the buffer, and 2 μM 1h was added; made in house
# T1 sequence (Q06187 402-655): as the sequence (Q06187 402-655 limits assumed) above
# Experimental: The collection was composed of BTK binding compounds obtained in our previous luminescence screen[37] (Data set S2). […] The resulting BTK-1h (50 μL) was added to the inhibitors.
# IKK-1 = tested on: IKK-1; set-up: method as in selleck (supplier comment); conditions: cell-free assays; ref selleck (supplier comment); cited from earlier work
# Bcr-Abl(WT) = tested on: Bcr-Abl(WT); set-up: method as in selleck (supplier comment); conditions: ref selleck (supplier comment); cited from earlier work
# Bcr-Abl(T315I) = tested on: Bcr-Abl(T315I); set-up: method as in selleck (supplier comment); conditions: ref selleck (supplier comment); cited from earlier work
# G-quadruplexe = biological target: G-quadruplexe; set-up: method as in selleck (supplier comment); conditions: cell-free assay; ref selleck (supplier comment); cited from earlier work
# C481S BTK = tested on: C481S BTK; set-up: method as in selleck (supplier comment); conditions: ref selleck (supplier comment); cited from earlier work
# WT BTK = tested on: WT BTK; set-up: method as in selleck (supplier comment); conditions: ref selleck (supplier comment); cited from earlier work
# [1] = Dataset S2A, 200 μM compound, BTK-1h, 32 °C, 10 min
# [2] = Dataset S2C, BTK-1h with inhibitor
SMILES,IC50 (Abl) [nM],IC50 (Src) [nM],IC50 (IKK complex) [nM],IC50 (IKK-2) [nM],BTK Inhibition reported in luminescence assay* (BTK),FI (650)/FI (620) (BTK-1h; [1]),FI (BTK-1h)/FI (BTK-1h+Inhibitor) at 620 nm (BTK-1h; [1]),FI (650)/FI (620) (BTK-1h; [2]),IC50 (IKK-1) [nM],IC50 (Bcr-Abl(WT)) [nM],IC50 (Bcr-Abl(T315I)) [nM],Kd (G-quadruplexe) [nM],IC50 (C481S BTK) [nM],IC50 (WT BTK) [nM]
"O=C(c1ccc(Nc2nccc(-c3cc4ccccc4s3)n2)cc1)N1CCC(N2CCCC2)CC1 [PCM-0095335-002, IKK-16]",–,–,70,40,86.2,1.968,1.715,1.715,200,–,–,–,–,–
"Cc1ccc(C(=O)Nc2ccc(CN3CCN(C)CC3)c(C(F)(F)F)c2)cc1C#Cc1cnc2[nH]ncc2c1 [PCM-0215209-001, GZD824 Dimesylate]",–,–,–,–,114.5,1.799,1.6661,1.6661,–,0.34,0.68,–,–,–
"NCCOc1cc(C(=O)Nc2cc(OCCN)c3ccccc3n2)nc(C(=O)Nc2cc(OCCN)c3ccccc3n2)c1 [PCM-0215476-001, Pyridostatin Trifluoroacetate Salt]",–,–,–,–,59.5,2.671,1.539,1.539,–,–,–,490,–,–
"O=C(c1ccc(Oc2ccccc2)cc1Cl)c1c[nH]c2ncnc(N[C@@H]3CC[C@@H](CO)OC3)c12 [PCM-0216245-001, ARQ 531]",–,–,–,–,115.8,3.795,2.9215,2.9215,–,–,–,–,0.39,0.85
